Test results as given in patent US20100144655A1, “ORGANIC COMPOUNDS” (NOVARTIS AG, priority 2008, published 2010).

Tests used:
[1] = Storage properties (standard tests, not described); format: physicochemical; details: salt forms
[2] = Bioavailability (tests not described); format: in vivo; details: salt forms
[3] = system: TSV01 dengue virus 2; assay: Mouse model of dengue virus infection (viremia by plaque assay); format: in vivo, AG129 mice
Experimental: The compounds of the invention also show activity in vivo in a mouse model of dengue infection (Schul et al. Journal of Infectious Diseases 2007; 195:665-74). Briefly, AG129 mice (B&K Universal Ltd, Hull, UK) are housed in individually ventilated cages (TechniPlast, Italy) and used between 6 and 10 weeks of age. Mice are injected intraperitoneally with 0.6 ml TSV01 dengue virus 2 suspension. Blood samples are taken by retro orbital puncture under isoflurane anaesthesia. Blood samples are collected in tubes containing sodium citrate to a final concentration of 0.4%, and immediately centrifuged for 3 minutes at 6000 g to obtain plasma. 20 μL of plasma is diluted in 780 μL RPMI1640 medium and snap frozen in liquid nitrogen for plaque assay analysis. Remaining plasma is used for cytokine and NS1 protein level determination. Mice develop dengue viremia rising over several days, peaking on day 3 post-infection.
For testing of antiviral activity, a compound of the invention is dissolved in vehicle fluid, e.g. 10% ethanol, 30% PEG 300 and 60% D5W (5% dextrose in water); or 6N HCl (1.5 eq): 1N
NaOH (pH adjusted to 3.5): 100 mM citrate buffer pH 3.5 (0.9% v/v: 2.5% v/v: 96.6% v/v). Thirty six 6-10 week old AG129 mice are divided into six groups of six mice each. All mice are infected with dengue virus as described above (day 0). Group 1 is dosed by oral gavage of 200 μL/mouse with 13 mg/kg of a compound of the invention twice a day (once early in the morning and once late in the afternoon) for three consecutive days starting on day 0 (first dose just before dengue infection). […] Thus, Groups 1 and 2 are dosed with a compound of the invention at 13 mg/kg and 32 mg/kg respectively, and Groups 3 and 4 are dosed with another compound of the invention at 13 mg/kg and 32 mg/kg respectively. A positive control may be used, such as, e.g., (2R,3R,4R,5R)-2-(4-amino-pyrrolo[2,3-d]pyrimidin-7-yl)-3-ethynyl-5-hydroxymethyl-tetrahydrofuran-3,4-diol, dosed by oral gavage of 200 μL/mouse the same way as the previous groups. A further group is treated with only vehicle fluid.
On day 3 post-infection approximately 100 μL blood samples, anti-coagulated with sodium citrate, are taken from the mice by retro-orbital puncture under isoflurane anaesthesia. Plasma is obtained from each blood sample by centrifugation and snap frozen in liquid nitrogen for plaque assay analysis. The collected plasma samples are analyzed by plaque assay as described in Schul et al. Journal of Infectious Diseases 2007; 195:665-74. Cytokines are also analysed as described in Schul et al. Journal of Infectious Diseases 2007; 195:665-74. NS1 protein levels are analysed using a Platelia® kit (BioRad Laboratories). An anti-viral effect is indicated by a reduction in cytokine levels and/or NS1 protein levels.

[4] = system: dengue virus serotype 2 strain New Guinea C; assay: Cell-based flavivirus immunodetection (CFI) assay; details: for EC50: Dengue virus, A549, read-out: EC50 in the CFI assay for dengue virus
Excerpt: (§1) The CFI assay is based on quantitative immunodetection of the viral envelope protein, E, as a readout for viral load in target cells. In the CFI assay, the compounds of the invention show activity against dengue virus (e.g. dengue virus serotype 2). […] The HCV replicon contains an inserted firefly luciferase construct in its sequence. The genome of the HCV replicon is maintained as RNA species in a Huh-7 cell line (Krieger et al. Journal of Virology 2001; 75(10):4614-24). Measurement of luciferase activity is used as a surrogate marker for viremia in target cells.
50% effective concentration (EC50), is the concentration of the test compound that decreases the signal generated by the virus by 50%. It is calculated using nonlinear regression analysis using the variable slope sigmoidal dose-response curve, with commercial software such as Prism or ActivityBase.
A549 cells (e.g. available from ATCC #CCL-185) are trypsinized, counted and diluted to 2×10^5 cells/ml in Hams F-12 media supplemented with 2% fetal bovine serum and 1% penicillin/streptomycin. 2×10^4 cells are dispensed in clear 96-well tissue culture plate per well and placed at 37° C., 5% CO2 overnight. On the next day, the cells are infected with virus (dengue serotype 2, NGC strain, e.g. available from ATCC #VR-1584) at multiplicity of infection (MOI) of 0.3 in the presence of varied concentrations of test compounds for 1 hour at 37° C. and 5% CO2 in the same media. The medium containing virus and the compounds is removed, replaced with fresh medium containing only the test compounds and incubated at 37° C., 5% CO2 for another 48 hours. The cells are washed once with PBS and fixed with cold methanol for 10 min. After washing twice with PBS, the fixed cells are blocked with PBS containing 1% FBS and 0.05% Tween-20 for 1 hour at room temperature. The primary antibody solution (4G2) is then added at a concentration of 1:20 to 1:100 in PBS containing 1% FBS and 0.05% Tween-20 for 3 hours. The cells are then washed three times with PBS followed by one hour incubation with horseradish peroxidase (HRP)-conjugated anti-mouse IgG (Sigma, 1:2000 dilution). After washing three times with PBS, 50 μL of 3,3′,5,5′-tetramethylbenzidine (TMB) substrate solution (Sigma) is added to each well for two minutes. The reaction is stopped by addition 0.5M sulfuric acid. The plates are read at 450 nm absorbance for viral load quantification. After measurement, the cells are washed three times with PBS, followed by incubation with propidium iodide for 5 min. The plate is read in a Tecan Safire plate reader (excitation 537 nm, emission 617 nm) for cell number quantification. Dose response curves are plotted from the mean absorbance versus the log of the concentration of test compounds. The EC50 is calculated by nonlinear regression analysis. A positive control may be used, such as, for example, (2R,3R,4R,5R)-2-(4-amino-pyrrolo[2,3-d]pyrimidin-7-yl)-3-ethynyl-5-hydroxymethyl-tetrahydrofuran-3,4-diol.

[5] = system: HCV replicon; assay: Cell-based HCV replicon assay (Huh-luc/neo-ET, luciferase); set-up: species or system Hepatitis C virus; details: for EC50: Hepatitis C virus, Huh-7 cell line, luciferase readout
Excerpt: as §1
HVC replicon-containing cells, Huh-luc/neo-ET (e.g. as described in Krieger et al., Journal of Virology, 2001; 75(10):4614-24), are maintained in DMEM medium containing 2 mM […], 0.1 mM non-essential amino acid solution, 10% heat-inactivated fetal bovine serum and […] Geneticin®, G418 sulfate solution. The cells are kept between 20 to 80% confluency and are trypsinized with trypsin (0.05%)/EDTA solution. After trypsinization, cells are resuspended in supplemented DMEM phenol red-free medium (DMEM phenol red free supplemented with 2 mM L-glutamine, 0.1 mM non-essential amino acid solution, 10% of heat-inactivated fetal bovine serum and 1 mM sodium pyruvate) and pelleted by centrifugation at 420 g for 5 min. Cell density is calculated and diluted to 1×10^5 cells/mL with phenol red-free medium.
Two sets of plates are prepared, a white opaque 96-well plate for the luciferase reading and a 96-well clear plate for cytotoxicity measurement. Each well is seeded with 10,000 cells/well and incubated overnight at 37° C., 5% CO2. After incubation, the medium is aspirated and phenol red free medium supplemented with various concentrations of compounds is added and the plates further incubated for at 37° C., 5% CO2 for another 48 hours. A positive control may be used, such as, for example, (2R,3R,4R,5R)-2-(4-amino-pyrrolo[2,3-d]pyrimidin-7-yl)-3-ethynyl-5-hydroxymethyl-tetrahydrofuran-3,4-diol.
For determination of luciferase activity, the plates are removed from the incubator to allow them to equilibrate to room temperature for 30 minutes and luciferase activity is measured after the addition of 100 μL of the Britelite® (PerKin Elmer) prepared according to manufacturer's instructions.

[6] = 32 mg/kg bid, oral gavage, 3 days, AG129 mice

| Molecule | storage properties (in words) [1] | bioavailability (in words) [2] | reduction in viremia [3, 6] | activity in vivo in a mouse model of dengue virus infection (in words) [3] | activity in the CFI assay (in words) [4] | EC50 [4] [µM] | activity in the HCV replicon assay (in words) [5] | EC50 [5] [µM] | reduction in viremia ([3]; 25 mg/kg, mouse model of dengue virus infection) |
| --- | --- | --- | --- | --- | --- | --- | --- | --- | --- |
| C#C[C@@]1(O)[C@H](O)[C@@H](CO)O[C@H]1n1ccc2c(N)ncnc21.C#C[C@@]1(O)[C@H](O)[C@@H](CO)O[C@H]1n1ccc2c(N)ncnc21.O=S(=O)(O)c1cccc2c(S(=O)(=O)O)cccc12 [(2R,3R,4R,5R)-2-(4-amino-pyrrolo[2,3-d]pyrimidin-7-yl)-3-ethynyl-5-hydroxymethyl-tetrahydrofuran-3,4-diol napadisylate 2:1 salt] | good storage properties | good bioavailability | – | – | – | – | – | – | – |
| C#C[C@@]1(O)[C@H](OC(=O)[C@@H](N)C(C)C)[C@@H](CO)O[C@H]1n1ccc2c(N)ncnc21 [Compound 3, (S)-2-Amino-3-methyl-butyric acid (2R,3R,4R,5R)-5-(4-amino-pyrrolo[2,3-d]pyrimidin-7-yl)-4-ethynyl-4-hydroxy-2-hydroxymethyl-tetrahydro-furan-3-yl ester] | – | – | about 45 fold | exhibit activity | exhibit activity | ~0.86 | exhibit activity | ~0.066 | – |
| C#C[C@@]1(O)[C@H](OC(=O)C(C)C)[C@@H](CO)O[C@H]1n1ccc2c(N)ncnc21 [Compound 4, Isobutyric acid (2R,3R,4R,5R)-5-(4-amino-pyrrolo[2,3-d]pyrimidin-7-yl)-4-ethynyl-4-hydroxy-2-hydroxymethyl-tetrahydro-furan-3-yl ester] | – | – | about 113 fold | exhibit activity | exhibit activity | ~0.318 | exhibit activity | – | – |
| C#C[C@@]1(O)[C@H](OC(=O)C(C)C)[C@@H](COC(=O)C(C)C)O[C@H]1n1cc(C(N)=O)c2c(N)ncnc21 [Compound 10, Isobutyric acid (2R,3R,4R,5R)-5-(4-amino-5-carbamoyl-pyrrolo[2,3-d]pyrimidin-7-yl)-4-ethynyl-4-hydroxy-2-isobutyryloxymethyl-tetrahydro-furan-3-yl ester] | – | – | – | exhibit activity | exhibit activity | ~0.44 | exhibit activity | ~0.035 | about 30 fold |
| (2R,3R,4R,5R)-2-(4-amino-pyrrolo[2,3-d]pyrimidin-7-yl)-3-ethynyl-5-hydroxymethyl-tetrahydrofuran-3,4-diol salicylate salt | good storage properties | good bioavailability | – | – | – | – | – | – | – |
